Source: paper PMC12165799, “Antimicrobial peptide developed with machine learning sequence optimization targets drug resistant Staphylococcus aureus in mice” (The Journal of Clinical Investigation, 2025)

Legend:
[1] = test system: S. aureus MW2 established biofilm; assay: Fluorescence microscopy of established biofilms, live/dead staining; type: cell-based, Staphylococcus aureus; conditions: 32 μg/mL, SYTO9 / propidium iodide
Experimental: 369 aureus MW2 (adjusted to 1 × 10^6 CFU/ml) in TSB medium (supplemented with 0.2% glucose)
370 from overnight grown cultures. We added 100 µl of bacterial culture to flat-bottomed 96-well
371 polystyrene microtiter plates (Cat no. 3595, Corning, NY, USA). We then incubated the plates at
372 37°C for 24 hours in static conditions to allow biofilm formation. After incubation, we carefully
373 pipetted out the TSB medium and washed the wells with PBS (Gibco, MD, USA) to remove
374 loosely attached planktonic cells. We treated the established biofilms in each well with 10 µl of
375 serially diluted 10× peptide solution, followed by the addition of 90 μl TSB medium
376 (supplemented with 0.2% glucose). We incubated the plates for another 24 h at 37°C before
377 processing biomass and live-cell contents. We calculated the concentration of peptide that disrupts
378 50% of established biofilms (MBEC50).
380 Fluorescence microscopy of CIT-8-treated S. aureus MW2 established biofilms
381 We prepared exponential phase cultures of S. aureus MW2 and adjusted the bacterial count
382 to 1 × 10^6 CFU/ml in fresh TSB medium. To establish biofilms, we added 200 µl of the bacterial
383 culture to the chambers of Millicell EZ Slides (Millipore Sigma, MA, USA) and maintained them
384 at 37°C for 24 hours under static conditions (8). After incubation, we carefully removed the TSB […]
We calculated the percent hemolysis, […]

S. aureus MW2 = assay: Cryo-electron microscopy; type: cell-based, Staphylococcus aureus; conditions: 80 μg/mL, 60 minutes
Experimental: 506 containing 50 µl BacTiter-Glo reagent (Promega, WI, USA) and measured plate luminescence as
507 previously described (18) after 5 min of incubation at room temperature.
509 Cryo-electron microscopy (cryo-EM)
510 We statically treated 10 ml of an exponential-phase S. aureus MW2 culture (OD600 = 0.4,
For imaging, we vitrified the
512 bacteria cells using Leica EM-GP2® plunger (Leica Microsystems, Wetzlar, Germany) on R2×2
513 Quantifoil® carbon holey film (Micro Tools GmbH, Jena, Germany) grids as previously described
514 (19). Briefly, we applied a 4 µl of bacterial suspensions to the grids pre-cleaned in a Gatan Solarus
515 950 plasma cleaner (Gatan, Inc, USA), blotted with filter paper, and plunged into liquid ethane.
516 We stored the frozen grids under liquid nitrogen until used for microscopy. We then transferred
517 the grids into a JEM 2200FS electron microscope (JEOL Ltd, Akishima, Japan) operating at 200
518 keV and equipped with a field emission gun, in-column electron energy filter (omega type) and a
519 DE20 direct electron detector camera (Direct Electron Inc., CA, USA). We used a 20 eV energy
520 slit width during data acquisition. Total electron dose/image was ~15 electrons/Å2. Image pixel
521 size was 3.66 Å on the specimen scale.
523 Scanning electron microscopy (SEM)
524 We followed an established protocol with minor modification to perform SEM imaging of […]

[2] = test system: S. aureus MW2 infected skin; assay: Histopathology of skin (H&E, Gram stain), prophylactic model; type: in vivo, mice; conditions: 2% w/w formulation, H&E and Gram stains
Source text: 235 Supplemental Figure 13. Histopathology of vehicle and CIT-8 treated skin in the skin-abraded
236 prophylactic murine model infected with S. aureus MW2.
237 Panel A: Representative 10× images of H&E-stained murine skin sections from all n=32 animals
238 (n=8 per group). Scale bars: 0.05 mm. Panel B: Representative 40× images of Gram-stained murine
239 skin sections. Scale bars: 0.01 mm. White arrows (1-5) indicate key histopathological features; 1:
240 Disorganized epidermal layer with epidermal disruption; 2: Dense infiltration of
241 polymorphonuclear (PMN) and mononuclear (MN) cells in both the epidermis and dermis,
242 indicative of heightened inflammation; 3: More intact epidermis; 4: Reduced numbers of PMN
243 and MN cells; 5: Bacterial patches.
(1 picture or pasted object on this page, not shown here)

S. aureus MW2 membrane = assay: Membrane depolarization, DiBAC4(3); type: cell-based, Staphylococcus aureus; conditions: S. aureus MW2, 32 μg/mL
Experimental: 466 Membrane depolarization
467 We measured bacterial membrane potential using an established protocol with minor
468 modifications (9). We prepared an exponential phase culture of S. aureus MW2 in fresh TSB
469 medium, washed the culture two times in PBS, and resuspended it in a double volume of PBS. To
470 energize the bacterial cells, we added 25 mM of glucose for 15 mins at 37°C, followed by 500 nM
471 of DiBAC4(3) (bis-(1,3-dibutylbarbituric acid) trimethine oxonol) (Thermo Fisher Scientific, ON,
472 Canada). DiBAC4(3) is a potential-sensitive probe that enters depolarized cells, binds to
474 this bacterial culture per well in a black, clear bottomed 96-well plate (Cat. no. 3904, Corning,
475 NY, USA) and monitored the fluorescence using a SpectraMax i3x (Molecular Devices, CA, USA)
476 for 20 min, with excitation at 485 nm and emission at 520 nm, until the baseline stabilized. Then
477 we added 10 µl of serially diluted peptide solutions and recorded the fluorescence for another 40
478 min. We included triton X-100 (1%) as a positive control.

With H-GLFKVIKKLLKVI-NH2 [CIT-8] the “Live/dead staining of established biofilm” value [1] was “high proportion of dead cells”, the “Cryo-EM appearance of treated cells” value (S. aureus MW2) was “membrane disruption and perturbation” and the “Histopathology of treated skin” value [2] was “more intact epidermis, reduced numbers of PMN and MN (less inflammation), and no bacterial biofilm patches”. For the same substance, the “Membrane depolarization, DIBAC4(3) fluorescence” value (S. aureus MW2 membrane) was “rapid increase in DIBAC4(3) fluorescence”.
